Assay results: patent US20040126338A1, “Process of converting trans-lutein into cis-lutein and the uses thereof” (priority 2002, published 2004)

Tests used:
[1] = Persistence of cis-isomers during heating or reflux, normal phase HPLC percent area; format: physicochemical
Experimental: (§1) The solvent solutions are refluxed in the following examples by placing the glass flask on a heating unit. A reflux column, which is cooled by non-recirculating cold water, is attached to the flask. The solution is then heated to the boiling point of the given liquid, except for propylene glycol, which boils at 187° C. The refluxing time varies slightly between solution samples. The refluxing times for each example are stated for each below. Samples are taken periodically to test the concentration of the cis-isomers, these are referred to as collected samples. Similarly, the oil solutions were heated in the following examples by placing the glass flask into a heated oil bath filled with mineral oil, which was stirred constantly, at 72° C.
Storing and centrifuging refers to the collected samples being placed into 12×75 mm glass culture tubes and wrapped with Parafilm® (Pechiney Plastic Packaging) and stored in a freezer until analysis. When prepped for analysis the collected samples are first warmed to room temperature and then the aliquot is centrifuged at 12,000 rpm for 5 minutes to remove trans-isomers crystals. The trans-isomer crystals are removed because the cis-isomers of lutein are known to be more soluble than the trans-isomers, which will allow them to remain in solution once formed. Next 1 ml of the centrifuged collected sample is placed into a High Performance Liquid Chromotography (HPLC) vial for analysis.
Analysis of the solutions formed from lutein and a liquid are analyzed using both normal phase HPLC and a spectophotometer. For the HPLC analysis, 1 ml of the collected sample of each solution is filtered through a 0.45 micron syringe filter into a HPLC sample vial. The sample is first dried using a nitrogen stream and then the remaining solids are dissolved in a 1 ml of a 65:35 hexane:ethylacetate mixture. […] In this way the percent area of the lutein cis-isomer peak is determined.

[2] = cited from earlier work
[3] = test system: age-related macular degeneration; settings: consumption of lutein and zeaxanthin; cited from earlier work
[4] = Carotenoid content of lutein heated in oils at 72° C., UV-Vis absorbance at 446 nm; format: physicochemical
Experimental: as §1
In this preparation a solution was made using 2 g of lutein dry cake and 20 ml of oil. The solution was heated in an oil bath. […] As before, samples were analyzed qualitatively using normal phase HPLC and spectophotometer. However, quantitative analysis was also performed, by taking 1 ml of the HEAT (hexane, ethanol, acetone and toluene) solution previously prepared, diluting it to 25 ml in ethanol, and determining the absorbance on an UV-Vis absorption spectrophotometer. This type of analysis is often useful for quantitative measurements. All of the thyme oil samples required a 1:20 dilution of the ethanol solution before reading on the UV-Vis.

[5] = Observed solubility of lutein dry cake in oils; format: physicochemical
Experimental: Using an analytical balance, the preparation of solution for the following examples for cis-isomerization includes placing weighed dry cake lutein into a flask and adding one of the above liquids to the flask to form the solution. The solution is first hand swirled and its solubility is observed. Following a baseline sample, which is taken at the 0 hour mark, the prepared lutein solution is placed on a heat source and refluxed for a period of time ranging between 0-120 hours.
The purpose of this preparation is to analyze the effect of heat on a solution of lutein in the above stated oils and determine whether isomerization from trans-lutein to various cis-isomers occurs, and the concentration of each isomer that is formed. The oils used in this example were corn oil, which was used as a control, corn mint oil, spearmint oil, peppermint oil, tea tree oil, and bay oil. […] The solutions were made by adding 20 ml of oil to the weighed lutein. The sample heated in an oil bath. A baseline 2 ml sample was taken and additional 2 ml samples taken at 1, 4, 8, 24, and 48 hours.
In this preparation a solution was made using 2 g of lutein dry cake and 20 ml of oil. The solution was heated in an oil bath. Samples (2 ml) were taken at 0, 1, 4, 6.5, 24, and 48 hours. As before, samples were analyzed qualitatively using normal phase HPLC and spectophotometer. However, quantitative analysis was also performed, by taking 1 ml of the HEAT (hexane, ethanol, acetone and toluene) solution previously prepared, diluting it to 25 ml in ethanol, and determining the absorbance on an UV-Vis absorption spectrophotometer. This type of analysis is often useful for quantitative measurements. All of the thyme oil samples required a 1:20 dilution of the ethanol solution before reading on the UV-Vis.
Samples containing 25% solutions were prepared using 2.5 g dry cake lutein and 10 ml of liquid. The liquid used in solution was from the group consisting of corn oil, diH2O, or Spectrum brand white thyme oil. The “dry” sample contained 2.5 g dry cake lutein and was preformed without the addition of any liquid. […]

[6] = Room temperature saturation limit and solubility on heating of lutein dry cake in solvents; format: physicochemical; settings: for Room temp. sataturation limit (%): room temperature
Experimental: The purpose of this preparation is to analyze the effect of heat on a solution of lutein in four solvents, hexane, ethanol, isopropanol, and acetone, to determine whether isomerization from trans-isomers of lutein to various cis-isomers occurs, and what concentration of each isomer is formed. The solutions were prepared using 100 ml of the above stated solvents to dissolve varying weights of lutein dry cake. Initial solubility limits ere tested by adding a small amount of dry cake and swirling the flask briefly. If the sample appeared saturated, it was centrifuged to verify that a pellet of undissolved material was formed. If the solution was not saturated, additional dry cake was added until saturation was reached. Once the approximate solubility at room temperature was determined for each solvent, excess dry cake was added for the increased solubility that occurs through heating and isomerization, in order to maintain saturation during the entire experiment.

[7] = among carotenoids; cited from earlier work
[8] = test system: prostate cancer; settings: in vivo; cited from earlier work
[9] = Cis-isomer content of supernatants versus pellets of the isopropanol solution; format: physicochemical
Experimental: The purpose of this preparation was to analyze the effect of isopropanol in solution with lutein, and analyze the effect of adding water to the lutein/isopropanol solution. In this example a solution was prepared by adding 2.51 g of dry cake lutein (lot 082405-08) to 50 ml isopropanol to a flask. The prepared solution was swirled and refluxed at 81° C. for 8 hours.
Samples were taken at 0, 1, 4, 6, and 8 hours to follow the isomerization. At 8 hours the sample was transferred to a 150 ml Erlenmeyer flask and placed in a freezer to cool. When partially cooled, aliquots were taken for precipitation and samples were diluted to 2:1, 1:1, and 1:2 ratios of water:isopropanol. An additional sample was prepared which contained only isopropanol solution. The samples were vortexed and centrifuged. Supernatant and pellets were collected and stored in a 1.5 ml microfuge tube until analysis.

[10] = UV absorption spectra of cis-lutein and trans-lutein; format: physicochemical
Source text: FIG. 5 is a graph of the trans-lutein spectrum.
FIG. 6 is a graph of the cis-lutein spectrum.

## CC(C=CC=C(C)C=CC1=C(C)CC(O)CC1(C)C)=CC=CC=C(C)C=CC=C(C)C=CC1C(C)=CC(O)CC1(C)C (single isomer, unassigned) [13,13′ cis-isomer, 13,13′ cis-lutein]
[1]; Example 3 oils at 72° C., concentration declines after 24 hour sample
  stability for extended periods: did not appear to be highly stable for extended periods
[1]; Example 4 thyme oils at 72° C., 4-48 hours
  stability: appears to be stable

## CC1=C[C@H](O)CC(C)(C)[C@H]1/C=C/C(C)=C/C=C/C(C)=C/C=C/C=C(C)/C=C/C=C(C)/C=C/C1=C(C)C[C@@H](O)CC1(C)C (single isomer, unassigned) [trans-isomers of lutein, trans-lutein]
[2]; crystalline forms
  stability in crystalline forms: stable in crystalline forms

## CC1=C(/C=C/C(C)=C/C=C/C(C)=C/C=C/C=C(C)/C=C/C=C(C)/C=C/C2=C(C)C[C@@H](O)CC2(C)C)C(C)(C)C[C@H](O)C1 [Zeaxanithin, zeaxanthin]
[3]
  reduction in age-related macular degeneration: 57%

## CC1=C[C@H](O)CC(C)(C)[C@H]1/C=C/C(C)=C/C=C/C(C)=C/C=C/C=C(C)/C=C/C=C(C)/C=C/C1=C(C)C[C@@H](O)CC1(C)C [lutein dry cake, lutein]
[4]; thyme oil, predicted concentration 10%
  carotenoid concentration observed: 7.18%
[5]; Example 4, 2 g dry cake in 20 ml oil
  solubility in corn oil compared with thyme oils: least soluble in corn oil
[6]; in acetone
  Room temp. sataturation limit (%): ˜0.45%
[6]; in ethanol
  Room temp. sataturation limit (%): ˜0.3%
[6]; in hexane
  Room temp. sataturation limit (%): <1%
[6]; in isopropanol, reflux
  solubility when the solution was heated: increased dramatically
[6]; in isopropanol
  Room temp. sataturation limit (%): ˜0.2%

## CC1=C[C@H](O)CC(C)(C)[C@H]1/C=C/C(C)=C/C=C/C(C)=C/C=C/C=C(C)/C=C/C=C(C)/C=C/C1=C(C)C[C@@H](O)CC1(C)C [lutein]
[4]; in thyme oil
  time for which lutein was stable (carotenoid content): about 6.5 hours
[3]
  reduction in age-related macular degeneration: 57%
[5]; Example 3, corn mint, spearmint, peppermint, tea tree and bay oil, 3 mg or 4 mg in 20 ml
  solubility in corn oil compared with the other oils: less soluble in corn oil than in the other oils
[5]; Example 5, 25% w/v, Spectrum white thyme oil
  solubility when heated in white thyme oil: good solubility

## CC(C)=CCC/C(C)=C/C=C/C(C)=C/C=C/C(C)=C/C=C/C=C(C)/C=C/C=C(C)/C=C/C=C(\C)CCC=C(C)C [lycopene]
[7]
  oxygen quenching: best carotenoid oxygen quencher
[8]
  reducing the risk of prostate cancer: active in reducing the risk of prostate cancer

## cis-lutein [cis-isomers of lutein]
[9]
  solubility compared with trans-isomers: higher than trans-isomers
[1]; propylene glycol reflux (75° C.), content decreased after four hours
  stability of the cis-isomer formed: not stable
[10]
  ultraviolet light (UV) absorption compared with trans-isomer lutein: higher
[2]; reflux in ethanol
  stability upon reflux in ethanol: easily reverted to the more thermodynamically stable trans-isomers
